Laboratory results published in patent US20210395239A1 (Hoffmann-La Roche Inc., priority 2018, published 2021).

target: T1, human TLR8 (Homo sapiens, UniProt Q9NR97); assay: HEK293-Blue-hTLR-8 cells assay (SEAP reporter, R848 stimulation); type: cell-based; details: HEK293-Blue-hTLR8 cells, R848, 20 hrs; read-out: HEK/hTLR8 IC50
T1 construct: host or cells: HEK293 (HEK-Blue hTLR8)
T1 sequence (Q9NR97 27-1041): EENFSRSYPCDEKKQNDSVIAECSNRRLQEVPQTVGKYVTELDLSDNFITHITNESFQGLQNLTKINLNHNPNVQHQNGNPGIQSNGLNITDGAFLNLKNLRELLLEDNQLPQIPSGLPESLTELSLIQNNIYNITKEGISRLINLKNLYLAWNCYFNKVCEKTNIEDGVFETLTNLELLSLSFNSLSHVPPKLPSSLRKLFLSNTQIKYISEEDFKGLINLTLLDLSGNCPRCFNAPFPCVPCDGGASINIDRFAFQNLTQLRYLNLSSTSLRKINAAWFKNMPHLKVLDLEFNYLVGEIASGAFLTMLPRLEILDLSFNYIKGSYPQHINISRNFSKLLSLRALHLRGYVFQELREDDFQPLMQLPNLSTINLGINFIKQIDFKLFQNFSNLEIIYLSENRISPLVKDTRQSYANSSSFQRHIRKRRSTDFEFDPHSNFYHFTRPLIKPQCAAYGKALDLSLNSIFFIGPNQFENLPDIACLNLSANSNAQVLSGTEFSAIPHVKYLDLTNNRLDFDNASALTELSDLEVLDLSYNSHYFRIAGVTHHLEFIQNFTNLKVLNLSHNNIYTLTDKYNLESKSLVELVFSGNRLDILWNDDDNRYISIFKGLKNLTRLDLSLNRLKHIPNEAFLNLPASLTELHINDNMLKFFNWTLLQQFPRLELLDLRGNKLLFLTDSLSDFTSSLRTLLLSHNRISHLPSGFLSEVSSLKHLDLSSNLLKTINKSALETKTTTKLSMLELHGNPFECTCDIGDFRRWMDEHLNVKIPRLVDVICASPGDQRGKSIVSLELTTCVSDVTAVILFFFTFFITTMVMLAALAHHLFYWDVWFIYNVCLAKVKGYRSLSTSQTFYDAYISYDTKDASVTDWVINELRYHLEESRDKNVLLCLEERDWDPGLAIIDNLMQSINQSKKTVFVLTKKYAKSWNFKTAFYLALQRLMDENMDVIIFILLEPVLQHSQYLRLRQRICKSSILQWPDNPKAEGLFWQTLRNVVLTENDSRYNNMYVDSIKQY
Summary of the method: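 HEK293-Blue-hTLR8 cells (NF-κB/AP-1-driven SEAP) incubated 20 h at 37° C with serially diluted compound (1% DMSO) plus R848 stimulation. Supernatant SEAP measured with QUANTI-Blue, 2 h at 37° C, absorbance 620–655 nm.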

| Structure (SMILES) | IC50 |
| --- | --- |
| [2H]c1ccc2c(N3C[C@H](CN4CCN(c5ccc(N6C[C@@H](N)[C@H](OC)C6)nc5)CC4)O[C@H](C)C3)ccc(C#N)c2n1 [Example 143, 5-[(2S,6R)-2-[[4-[6-[(3R,4R)-3-amino-4-methoxy-pyrrolidin-1-yl]-3-pyridyl]piperazin-1-yl]methyl]-6-methyl-morpholin-4-yl]-2-deuterio-quinoline-8-carbonitrile] | 0.008 µM |
| [2H]c1ccc2c(N3C[C@H](CN4CC(c5cnc(N6C[C@@H](N)[C@H](OC)C6)cc5C)C4)O[C@H](C)C3)ccc(C#N)c2n1 [Example 146, 5-[(2S,6R)-2-[[3-[6-[(3R,4R)-3-amino-4-methoxy-pyrrolidin-1-yl]-4-methyl-3-pyridyl]azetidin-1-yl]methyl]-6-methyl-morpholin-4-yl]-2-deuterio-quinoline-8-carbonitrile] | 0.014 µM |
| [2H]c1ccc2c(N3C[C@H](CN4CCN(c5ccc(N6CC(C)(N)C6)c(C)n5)CC4)O[C@H](C)C3)ccc(C#N)c2n1 [Example 147, 5-[(2S,6R)-2-[[4-[5-(3-amino-3-methyl-azetidin-1-yl)-6-methyl-2-pyridyl]piperazin-1-yl]methyl]-6-methyl-morpholin-4-yl]-2-deuterio-quinoline-8-carbonitrile] | 0.011 µM |
| [2H]c1ccc2c(N3C[C@H](CN4CC(c5ccc(N6C[C@@H](N)[C@H](OC)C6)nc5)C4)O[C@H](C)C3)ccc(C#N)c2n1 [Example 149, 5-[(2S,6R)-2-[[3-[6-[(3R,4R)-3-amino-4-methoxy-pyrrolidin-1-yl]-3-pyridyl]azetidin-1-yl]methyl]-6-methyl-morpholin-4-yl]-2-deuterio-quinoline-8-carbonitrile] | 0.012 µM |
| [2H]c1ccc2c(N3C[C@H](CN4CCN(c5ccc(N6CC7(CNCCO7)C6)nc5)CC4)O[C@H](C)C3)ccc(C#N)c2n1 [Example 152, 2-deuterio-5-[(2R,6S)-2-methyl-6-[[4-[6-(5-oxa-2,8-diazaspiro[3.5]nonan-2-yl)-3-pyridyl]piperazin-1-yl]methyl]morpholin-4-yl]quinoline-8-carbonitrile] | 0.017 µM |
| [2H]c1ccc2c(N3C[C@H](CN4CCN(c5ccc(N6C[C@H]7C[C@@H]6CN7)nc5)CC4)O[C@H](C)C3)ccc(C#N)c2n1 [Example 153, 2-deuterio-5-[(2S,6R)-2-[[4-[6-[(1R,4R)-2,5-diazabicyclo[2.2.1]heptan-2-yl]-3-pyridyl]piperazin-1-yl]methyl]-6-methyl-morpholin-4-yl]quinoline-8-carbonitrile] | 0.019 µM |
| C[C@@H]1CN(c2ccc(C#N)n3ncc(F)c23)C[C@H](CN2CCN(c3ccc(N4CC(C)(N)C4)nc3)CC2)O1 [Example 154, 4-[(2S,6R)-2-[[4-[6-(3-amino-3-methyl-azetidin-1-yl)-3-pyridyl]piperazin-1-yl]methyl]-6-methyl-morpholin-4-yl]-3-fluoro-pyrazolo[1,5-a]pyridine-7-carbonitrile] | 0.05 µM |
| [2H]c1ccc2c(N3C[C@H](CN4CC(O)(c5ccc(N6CC(C)(N)C6)cc5)C4)O[C@H](C)C3)ccc(C#N)c2n1 [Example 156, 5-[(2S,6R)-2-[[3-[4-(3-amino-3-methyl-azetidin-1-yl)phenyl]-3-hydroxy-azetidin-1-yl]methyl]-6-methyl-morpholin-4-yl]-2-deuterio-quinoline-8-carbonitrile] | 0.024 µM |
| C[C@@H]1CN(c2ccc(C#N)n3ncc(F)c23)C[C@H](CN2CC(c3ccc(N4CC(C)(N)C4)nc3)C2)O1 [Example 158, 4-[(2S,6R)-2-[[3-[6-(3-amino-3-methyl-azetidin-1-yl)-3-pyridyl]azetidin-1-yl]methyl]-6-methyl-morpholin-4-yl]-3-fluoro-pyrazolo[1,5-a]pyridine-7-carbonitrile] | 0.037 µM |
| C[C@@H]1CN(c2ccc(C#N)n3ncc(F)c23)C[C@H](CN2CC(c3ccc(N4CC(C)(N)C4)cc3)C2)O1 [Example 160, 4-[(2S,6R)-2-[[3-[4-(3-amino-3-methyl-azetidin-1-yl)phenyl]azetidin-1-yl]methyl]-6-methyl-morpholin-4-yl]-3-fluoro-pyrazolo[1,5-a]pyridine-7-carbonitrile] | 0.068 µM |

The remaining compounds from weak to strong by IC50, led by results:

| IC50 | Structure (SMILES) |
| --- | --- |
| 0.118 µM | C[C@@H]1CN(c2ccc(C#N)n3nccc23)C[C@H](CN2CC(c3ccc(N4CC(C)(N)C4)nc3)C2)O1 [Example 157, 4-[(2S,6R)-2-[[3-[6-(3-amino-3-methyl-azetidin-1-yl)-3-pyridyl]azetidin-1-yl]methyl]-6-methyl-morpholin-4-yl]pyrazolo[1,5-a]pyridine-7-carbonitrile] |
| 0.052 µM | [2H]c1ccc2c(N3C[C@H](CN4CC(c5cccc(N6CC(C)(N)C6)n5)C4)O[C@H](C)C3)ccc(C#N)c2n1 [Example 159, 5-[(2S,6R)-2-[[3-[6-(3-amino-3-methyl-azetidin-1-yl)-2-pyridyl]azetidin-1-yl]methyl]-6-methyl-morpholin-4-yl]-2-deuterio-quinoline-8-carbonitrile] |
| 0.049 µM | Cc1cc(N2CC(C)(N)C2)cnc1N1CCN(C[C@H]2CN(c3ccc(C#N)n4ncc(F)c34)C[C@@H](C)O2)CC1 [Example 148, 4-[(2S,6R)-2-[[4-[5-(3-amino-3-methyl-azetidin-1-yl)-3-methyl-2-pyridyl]piperazin-1-yl]methyl]-6-methyl-morpholin-4-yl]-3-fluoro-pyrazolo[1,5-a]pyridine-7-carbonitrile] |
| 0.023 µM | [2H]c1ccc2c(N3C[C@H](CN4CCN(c5ccc(N6C[C@@H]7C[C@H]6CN7)nc5)CC4)O[C@H](C)C3)ccc(C#N)c2n1 [Example 151, 2-deuterio-5-[(2S,6R)-2-[[4-[6-[(1S,4S)-2,5-diazabicyclo[2.2.1]heptan-2-yl]-3-pyridyl]piperazin-1-yl]methyl]-6-methyl-morpholin-4-yl]quinoline-8-carbonitrile] |
| 0.017 µM | [2H]c1ccc2c(N3C[C@H](CN4CCN(c5ncc(N6C[C@@H](N)[C@H](OC)C6)cc5C)CC4)O[C@H](C)C3)ccc(C#N)c2n1 [Example 142, 5-[(2S,6R)-2-[[4-[5-[(3R,4R)-3-amino-4-methoxy-pyrrolidin-1-yl]-3-methyl-2-pyridyl]piperazin-1-yl]methyl]-6-methyl-morpholin-4-yl]-2-deuterio-quinoline-8-carbonitrile] |
| 0.014 µM | [2H]c1ccc2c(N3C[C@H](CN4CC(c5cnc(N6CC(C)(N)C6)cc5C)C4)O[C@H](C)C3)ccc(C#N)c2n1 [Example 145, 5-[(2S,6R)-2-[[3-[6-(3-amino-3-methyl-azetidin-1-yl)-4-methyl-3-pyridyl]azetidin-1-yl]methyl]-6-methyl-morpholin-4-yl]-2-deuterio-quinoline-8-carbonitrile] |
| 0.008 µM | [2H]c1ccc2c(N3C[C@H](CN4CCN(c5cccc(N6CC(C)(N)C6)n5)CC4)O[C@H](C)C3)ccc(C#N)c2n1 [Example 155, 5-[(2S,6R)-2-[[4-[6-(3-amino-3-methyl-azetidin-1-yl)-2-pyridyl]piperazin-1-yl]methyl]-6-methyl-morpholin-4-yl]-2-deuterio-quinoline-8-carbonitrile] |
| 0.008 µM | [2H]c1ccc2c(N3C[C@H](CN4CCN(c5ccc(N6CC7(CN(C)C7)C6)nc5)CC4)O[C@H](C)C3)ccc(C#N)c2n1 [Example 161, 2-deuterio-5-[(2R,6S)-2-methyl-6-[[4-[6-(6-methyl-2,6-diazaspiro[3.3]heptan-2-yl)-3-pyridyl]piperazin-1-yl]methyl]morpholin-4-yl]quinoline-8-carbonitrile] |
| 0.007 µM | [2H]c1ccc2c(N3C[C@H](CN4CCN(c5ccc(N6C[C@H](N)[C@@H](F)C6)nc5)CC4)O[C@H](C)C3)ccc(C#N)c2n1 [Example 150, 5-[(2S,6R)-2-[[4-[6-[(3S,4S)-3-amino-4-fluoro-pyrrolidin-1-yl]-3-pyridyl]piperazin-1-yl]methyl]-6-methyl-morpholin-4-yl]-2-deuterio-quinoline-8-carbonitrile] |
| 0.001 µM | [2H]c1ccc2c(N3C[C@H](CN4CCN(c5nc(C)cc(N6C[C@@H](N)[C@H](OC)C6)n5)CC4)O[C@H](C)C3)ccc(C#N)c2n1 [Example 144, 5-[(2S,6R)-2-[[4-[4-[(3R,4R)-3-amino-4-methoxy-pyrrolidin-1-yl]-6-methyl-pyrimidin-2-yl]piperazin-1-yl]methyl]-6-methyl-morpholin-4-yl]-2-deuterio-quinoline-8-carbonitrile] |
